# Laboratory results from patent publication US20150158914A1, “PEPTIDES, CONSTRUCTS AND USES THEREFOR” (priority 2010, published 2015).
# “Also recorded” adds a separate entry of the source. Ends that are not written are not given here. * marks the point of attachment. FITC = O=C1OC2(c3ccc(O)cc3Oc3cc(O)ccc32)c2ccc(NC(=S)*)cc21
# Experiments:
# [1] = test system: Cos-1 kidney cell line; assay: Peptide uptake by other cell lines; type: cell-based, green monkey
# Method: (§1) The cells were then incubated overnight at 37° and 5% CO2, and then washed thrice with media without FCS. The X-protein peptide in 250 μl of appropriate media without FCS was added to the cells at a final concentration of 10 μM, and the slides incubated for 3 h at 37° C. and 5% CO2. The cells were washed with PBS, fixed with 4% formaldahyde in PBS for 30 min, and washed thrice with PBS. […] The slides were dried overnight in the dark, and examined by microscopy by using a Nikon E600 fluorescent microscope. Photos were taken using Nikon ACT-1 software. For further examination, slides were then examined by confocal microscopy using a Leica TCS-SP2 confocal microscope.
# (§2) The X-protein cell-permeable peptide aa 16-22 was tested for its ability to be taken up by other mammalian cell lines including the human C32 melanoma, DU145 prostate carcinoma, TK1 T cell lymphoma, H441 lung carcinoma, Rin-m5f rat pancreatic islet tumor and Cos-1/7 green monkey kidney cell lines. TK1 cells are suspension cells whereas all other cell lines are adherent cells. Cells were incubated with the fluoresceinated X-protein cell-permeable peptide 16-22 for 3 h in medium appropriate for that cell line in the absence of FCS. The HepG2 cell line was used as a positive control. The X-protein peptide was able enter all adherent cell lines regardless of type or source of the cell (FIGS. 22 and 23).
# [2] = test system: Cos-7 kidney cell line; assay: Peptide uptake by other cell lines; type: cell-based, green monkey
# Method: as §1, §2
# [3] = test system: nonadherent cell line TK1; assay: Peptide uptake by suspension cell line; type: cell-based; details: TK1 in suspension, 3 h; listed as X-protein cell-permeable peptide aa 16-22
# Method: as §1, §2
# [4] = test system: nonadherent peripheral blood mononuclear cells; assay: Peptide uptake by nonadherent buffy coat cells; type: cell-based, human; details: 3 h, RPMI without FCS
# Method: (§3) To determine whether this was a general feature of nonadherent cells, the ability of the peptide to enter non-adherent human peripheral blood mononuclear cells was examined. A buffy coat containing monocytes, lymphocytes, and platelets was isolated from 10 ml of human blood and incubated in 8-chamber slides for 3 h with the cell-permeable peptide aa 16-22 in RPMI medium without FCS.
# [5] = test system: adherent monocytes and platelets; assay: Peptide uptake by adherent buffy coat cells; type: cell-based, human; details: 3 h, cells adhered to 8-chamber slides
# Method: as §3
# [6] = test system: X-protein; assay: X-protein-mediated apoptosis of HepG2 transfectants (annexin-V staining); type: cell-based, hepatitis B virus; details: 10 μM peptide at 3 h, 3 and 24 h, or 3, 24 and 48 h, 51 h culture, listed as oligomerization domain peptide (aa 16-35)
# Method: No PSG antibiotic was added to the medium as it can interfere with transfection efficiency. The medium was then removed and replaced with opti-MEM medium without 10% FCS. The amount of plasmid DNA used for transfection was […]. Firstly, 0.2 μg of either pcDNA3.1-HBX or pcDNA3-HBX Myc plasmid DNA was mixed with 25 μl of Opti-MEM medium, and then 0.2 μl of polymag transfection reagent was added (these solutions were prepared as a master mixes—the amounts mentioned are indicative for one well). The mixture was incubated for 20 min and then 25 μl added to the cells. The plate was placed onto a magnetic plate on a rotating platform for 20 min, and then the cells incubated for 3 h.
# Cells were transfected with X-protein plasmid vectors as described above. After 3 h of transfection on the magnetic plate, the oligomerization domain peptide aa 16-35 or the control X-protein peptide aa 140-153 were added at a final concentration of 10 μM to the cells in MEM without 10% FCS, and cells incubated for either 3 h, 21 h, or 45 h. Peptides were added to MEM without FCS as serum can rapidly degrade small peptides. […]
# A drop of mounting solution with DAPI was added to the cells, and covered with a cover slip. Slides were examined by fluorescence microscopy by using a Nikon E600 fluorescent microscope and photos were taken using Nikon ACT-1 software. […]
# [7] = listed as X-protein cell-permeable peptide 16-22
# [8] = listed as cell-permeable peptide aa 16-22
Substance,"entry into cells ([1]; COS-1, 3 h)","uptake of the peptide, cells positive ([1]; Cos-1, 3 h, no FCS)","entry into cells ([2]; COS-7, 3 h)","uptake of the peptide, cells positive ([2]; Cos-7, 3 h, no FCS)",entry into cells [3],"uptake by nonadherent buffy coat cells [4, 7]","uptake by nonadherent buffy coat cells [4, 8]","uptake by adherent monocytes and platelets [5, 7]","uptake by adherent monocytes and platelets [5, 8]",inhibition of full-length X-protein-mediated apoptosis ([6]; pCDNA3-HBX Myc transfectants),inhibition of truncated X-protein-mediated apoptosis ([6]; pCDNA3.1-HBX transfectants)
FITC-LCLRPVG ({FITC}-LCLRPVG) [Peptide 16-22],taken up less efficiently,60 to 70 % cells positive,taken up less efficiently,60 to 70 % cells positive,completely unable to enter,unable to enter,did not take up the peptide,"able to enter adherent monocytes, and potentially adherent platelets",had taken up the peptide,–,–
FITC-Acp-LCLRPVGAESRGRPVSGPFG [Peptide 16-35],–,–,–,–,–,–,–,–,–,inhibited full-length X-protein-mediated apoptosis of HepG2 cells; also recorded: significantly reduced X-protein-mediated apoptosis in a dose-dependent fashion,inhibited truncated X-protein-mediated apoptosis of HepG2 cells; also recorded: significantly reduced X-protein-mediated apoptosis in a dose-dependent fashion
